# Results published in article PMC4798767, “Hydrophobicity of Antifungal β-Peptides Is Associated with Their Cytotoxic Effect on In Vitro Human Colon Caco-2 and Liver HepG2 Cells” (PLoS ONE, 2016).
# Entries after “also recorded” stand apart in the source; their conditions may differ.
# Key:
# [1] = HPLC-RP retention time as measure of β-peptide hydrophobicity; format: physicochemical; conditions: used to sort the β-peptides by hydrophobicity
# Procedure: Fig 1 i. Structures of antifungal β-peptides used in this study. The codification (#number) corresponds to the nomenclature used by Lee et al. in a previous publication. β-peptide (e) is a fluorescently labeled β-peptide. The C-terminus is amidated for all β-peptides. ii. HPLC-RP retention time for the β-peptides synthesized in this work, see Figs A-D in S1 File for further details. TEXT PRINTED IN THE PICTURE: (ii) #4: Retention time tR: 24.5 ± 0.2 min | (ii) #21: Retention time tR: 25.2 ± 0.2 min | (ii) #5: Retention time tR: 25.4 ± 0.1 min | (ii) #16: Retention time tR: 27.4 ± 0.2 min
# The experiments compiled here establish structural-functional correlations of the β-peptides as a function of the cytotoxicity in mammalian cells other than erythrocytes.
# Caco-2 cells [2] = test: Clonogenic assay, long-term effect; format: cell-based; conditions: Caco-2, 20 μg/mL for 24 hours
# Procedure: (§1) HepG2 and Caco-2 were tittered from a culture at 70–80% confluence. HepG2 and Caco-2 cells were seeded at 13,000 and 9,000 cells, respectively, in a clear flat bottom 96-well plate with dark walls (Corning, NY, USA). Then they were allowed to adhere and proliferate in DMEM for 48 hours. Agents were prepared under the following conditions: β-peptides were dissolved and diluted in DMEM to the final working concentration; while AmpB and Keto were first dissolved in DMSO as a vehicle. The DMSO concentration was kept under 0.5% v/v in the experimental sample as well as in the untreated control cell media. Cells were exposed to the agent during 24 hours. Afterwards, the cells were washed two times with Hank’s Balanced Salt Solution (HBSS). Then, fresh DMEM was added to each plate and incubated until the control reached approximately 90% confluency. Cell viability was determined using CellTiter Blue™ (Promega, WI, USA), an assay based on the capacity of cells to reduce resazurin to resorufin, a fluorescent product whose intensity is proportional to the viable cells in the sample. […] After incubation, the fluorescence was measured using a Spectra Max Gemini EM spectrofluorometer (560Ex/590Em) (Sunnyvale, CA, USA). The long-term effect of the treatments with β-peptides was assessed using the model peptide (ACHC-β3hV-β3hK) in a clonogenic assay. In these assays, 1.25x10^5 and 9x10^4 cells/ml from HepG2 and Caco-2, respectively, were seeded in a 25cm^2 flask. The media was changed every two days. Once cells reached a confluence between 70–80%, they were treated in the flask with (ACHC-β3hV-β3hK) at 20 μg/mL in DMEM, a sub-lethal concentration, for 24 hours. They were then washed two times with PBS and allowed to recover in fresh medium for six hours, followed by trypsinization and tittering.
# (§2) The long-term cytotoxic effect of β-peptides was evaluated using clonogenic assays (see Fig F in S1 File). In order to validate the data obtained from the dose-response curves for Caco-2 and HepG2, (ACHC-β3hV-β3hK) was selected as a β-peptide model to perform these assays due to its well-established biological activity against C. albicans, its hemolytic activity, and, with this study, its effect on HepG2 and Caco-2. A constant concentration of 20 μg/mL was chosen for these experiments. The chosen concentration of (ACHC-β3hV-β3hK) falls within the range of concentrations used in short-term assays, where 20 μg/mL of this β-peptide assured that both of the cell lines were affected to the same extent.
# HepG2 cells [3] = test: Clonogenic assay, long-term effect; format: cell-based; conditions: HepG2, 20 μg/mL for 24 hours
# Procedure: as §1, §2
# Caco-2 cells [4] = test: In vitro cytotoxicity, CellTiter Blue viability, dose-effect curves; format: cell-based; conditions: for IC50 Caco-2: 24 h
# Procedure: as §1
# (§3) In vitro cytotoxicity assessments for HepG2 and Caco-2 were performed two independent times, each with four replicates (n = 8). A multivariate study of the data was performed through PCA to ascertain the impact of increasing β-peptide hydrophobicity on the viability of the treated cells. PCA was done using XLSTAT 2014 trial version, under a Pearson approach. The input matrix set to the program consisted of eleven rows and four columns of data. The first column contained the concentrations tested and the remainder columns contained the viability ratio obtained after exposure to the β-peptides #4, #5, and #16 (see Fig 1ii). The data of β-peptide #21 was not used in this analysis due to structural differences (lack of ACHC residues), which affects the molecule’s helicity. The ratio IC50/MICaver represents the selectivity of the β-peptides for the fungal cells over that of host cells, termed selectivity index (SI). For the purpose of the present study the SIs were calculated based on MICs for C. albicans published previously.
# HepG2 cells [5] = test: cells; format: cell-based, human; conditions: for IC50 HepG2: 24 h
# Procedure: as §1, §3
# [6] = two independent times, each three biological replicates
smiles,measurement,setting,value
"CC(C)[C@@H](CC(=O)N[C@@H](CCCCN)CC(N)=O)NC(=O)[C@H]1CCCC[C@@H]1NC(=O)C[C@H](CCCCN)NC(=O)C[C@@H](NC(=O)[C@H]1CCCC[C@@H]1NC(=O)C[C@H](CCCCN)NC(=O)C[C@@H](NC(=O)[C@H]1CCCC[C@@H]1N)C(C)C)C(C)C [#4, NH2-(ACHC-β^3hVal-β^3hLys)3]",Retention time tR,[1],24.5 ± 0.2 min
same,surviving fraction (long-term) versus short-term viability; colony forming ability,Caco-2 cells [2]; listed as (ACHC-β3hV-β3hK),no significant difference; also recorded: slight decrease in colony forming ability
same,plating efficiency of treated cells,Caco-2 cells [2]; [6],> 22%
same,surviving fraction (long-term) versus short-term viability,HepG2 cells [3],no significant difference
same,plating efficiency of treated cells,HepG2 cells [3]; [6],> 9.5%
same,IC50 Caco-2,Caco-2 cells [4],27.33 ± 1.5 µg/mL
same,IC50 HepG2,HepG2 cells [5],38.75 ± 0.89 µg/mL
"C[C@@H]1[C@H](O)[C@@H](C)/C=C/C=C/C=C/C=C/C=C/C=C/C=C/[C@H](O[C@@H]2O[C@H](C)[C@@H](O)[C@H](N)[C@@H]2O)C[C@@H]2O[C@](O)(C[C@@H](O)C[C@@H](O)[C@H](O)CC[C@@H](O)C[C@@H](O)CC(=O)O[C@H]1C)C[C@H](O)[C@H]2C(=O)O [AmpB, Amphotericin B, reference compound]","cytotoxicity towards Caco-2, dose-effect curve in words",Caco-2 cells [4]; Caco-2,did not affect the viability
same,"cytotoxicity towards HepG2, dose-effect curve in words",HepG2 cells [5],did not reach 100% cytotoxicity
same,IC30 HepG2,"HepG2 cells [5]; 24 hours of exposure, from dose-effect curve",30 µg/mL
same,inhibition at 30 µg/mL,"HepG2 cells [5]; Homo sapiens, HepG2, 30 μg/mL, 24 hours of exposure",30%
"NCCCC[C@@H](CC(N)=O)NC(=O)C[C@H](Cc1ccccc1)NC(=O)[C@H]1CCCC[C@@H]1NC(=O)C[C@H](CCCCN)NC(=O)C[C@H](Cc1ccccc1)NC(=O)[C@H]1CCCC[C@@H]1NC(=O)C[C@H](CCCCN)NC(=O)C[C@H](Cc1ccccc1)NC(=O)[C@H]1CCCC[C@@H]1NC(=O)C[C@@H](N)Cc1ccc(O)cc1 [#16, NH2-β^3hTyr-(ACHC-β^3hPhe-β^3hLys)3]","cytotoxicity towards HepG2, dose-effect curve in words",HepG2 cells [5],greatest toxic effect at these lower concentrations
same,IC50 HepG2,HepG2 cells [5],42.5 ± 6.21 µg/mL
"CC(C)[C@@H](CC(=O)N[C@@H](CCCNC(=N)N)CC(=O)N[C@H](CC(=O)N[C@H](CC(=O)N[C@@H](CCCNC(=N)N)CC(=O)N[C@H](CC(=O)N[C@H](CC(=O)N[C@@H](CCCNC(=N)N)CC(N)=O)C(C)C)C(C)C)C(C)C)C(C)C)NC(=O)C[C@@H](NC(=O)C[C@@H](N)Cc1ccc(O)cc1)C(C)C [#21, NH2-β^3hTyr-(β^3hVal-β^3hVal-β^3hArg)3]",Retention time tR,[1],25.2 ± 0.2 min
same,IC50 Caco-2,Caco-2 cells [4],31.33 ± 3.27 µg/mL
same,IC50 HepG2,HepG2 cells [5],52.5 ± 4.98 µg/mL
"CC(C)[C@@H](CC(=O)N[C@@H](CCCNC(=N)N)CC(N)=O)NC(=O)[C@H]1CCCC[C@@H]1NC(=O)C[C@H](CCCNC(=N)N)NC(=O)C[C@@H](NC(=O)[C@H]1CCCC[C@@H]1NC(=O)C[C@H](CCCNC(=N)N)NC(=O)C[C@@H](NC(=O)[C@H]1CCCC[C@@H]1N)C(C)C)C(C)C [#5, NH2-(ACHC-β^3hVal-β^3hArg)3]",Retention time tR,[1],25.4 ± 0.1 min
same,IC50 Caco-2,Caco-2 cells [4],43.33 ± 9.0 µg/mL
same,IC50 HepG2,HepG2 cells [5],47.25 ± 5.12 µg/mL
COc1ccc2cc(C(=O)NCCOCCOCC(=O)N[C@H]3CCCC[C@@H]3C(=O)N[C@H](CC(=O)N[C@@H](CCCCN)CC(=O)N[C@H]3CCCC[C@@H]3C(=O)N[C@H](CC(=O)N[C@@H](CCCCN)CC(=O)N[C@H]3CCCC[C@@H]3C(=O)N[C@H](CC(=O)N[C@@H](CCCCN)CC(N)=O)C(C)C)C(C)C)C(C)C)c(=O)oc2c1 [coumarin-(ACHC-β3hV-β3hK)],effect on viability at 16 μg/mL,HepG2 cells [5],does not exert a significant effect on viability
"CC(=O)N1CCN(c2ccc(OCC3COC(Cn4ccnc4)(c4ccc(Cl)cc4Cl)O3)cc2)CC1 (stereo not shown) [Keto, ketoconazole, reference compound]","cytotoxicity towards Caco-2, dose-effect curve in words","Caco-2 cells [4]; 24 hours of exposure, tested concentration range",not statistically different than the response observed for HepG2
same,IC50,"HepG2 cells [5]; Homo sapiens, HepG2, 24 hours of exposure, CellTiter Blue, two independent experiments, each four replicates (n = 8)",70 µg/mL
